From publication doi:10.1101/2025.09.20.677545v1, “Parallel Evolution of a Drimenol Biosynthetic Gene Cluster Unique to Marine Bacteria” (biorxiv, 2025)

Tests used:
Type in all cases: biochemical
Sc terpene synthase β = target: T1, Sc terpene synthase β (Sorangium cellulosum, UniProt Z9XJ57G830); assay: GC-MS of product after alkaline phosphatase (BAP) treatment; settings: […] FPP, […] enzyme, […] Tris-HCl pH […] MgCl2 (Mg2+ not required), […] °C; cyclization to a diphosphate, product seen only after BAP
T1 construct: codon-optimized, N-terminal His8 tag kept, pET28b(+), E. coli BL21 Star (DE3), TALON; single β domain with DxDVT134-138 motif
T1 sequence (Z9XJ57G830 1-342): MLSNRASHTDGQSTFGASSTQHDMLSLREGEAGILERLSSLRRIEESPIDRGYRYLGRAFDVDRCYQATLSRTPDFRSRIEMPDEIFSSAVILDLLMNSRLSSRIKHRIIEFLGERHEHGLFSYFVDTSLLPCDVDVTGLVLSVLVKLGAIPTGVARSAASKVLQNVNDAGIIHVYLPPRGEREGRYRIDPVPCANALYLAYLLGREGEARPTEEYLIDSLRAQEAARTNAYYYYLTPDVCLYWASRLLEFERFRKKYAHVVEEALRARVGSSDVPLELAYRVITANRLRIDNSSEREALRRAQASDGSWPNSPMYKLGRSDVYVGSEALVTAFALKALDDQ

FeFPPS = target: T2, FeFPPS (Flavivirga eckloniae, UniProt A0A2K9PVX7); assay: GC-MS of farnesol after alkaline phosphatase (BAP) treatment; settings: 100 μM GPP with 100 μM IPP; otherwise same
T2 construct: gene C1H87_21960; codon-optimized, N-terminal His8 tag kept, pET28b(+), E. coli BL21 Star (DE3), TALON
T2 sequence (A0A2K9PVX7 1-289): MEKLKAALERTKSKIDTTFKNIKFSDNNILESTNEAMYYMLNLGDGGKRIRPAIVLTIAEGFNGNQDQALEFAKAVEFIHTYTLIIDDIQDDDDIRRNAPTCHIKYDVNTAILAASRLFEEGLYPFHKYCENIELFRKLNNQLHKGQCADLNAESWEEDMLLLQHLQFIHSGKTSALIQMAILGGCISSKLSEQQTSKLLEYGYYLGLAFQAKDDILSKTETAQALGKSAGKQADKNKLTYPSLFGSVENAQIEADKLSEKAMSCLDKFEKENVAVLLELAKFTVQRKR

AsFPPS = target: T3, AsFPPS (Aquimarina spongiae, UniProt A0A1M6CXH4); assay: as above; settings: 100 μM GPP with 100 μM IPP; otherwise same
T3 construct: gene SAMN04488508_102321; codon-optimized, N-terminal His8 tag kept, pET28b(+), E. coli BL21 Star (DE3), TALON
T3 sequence (A0A1M6CXH4 1-289): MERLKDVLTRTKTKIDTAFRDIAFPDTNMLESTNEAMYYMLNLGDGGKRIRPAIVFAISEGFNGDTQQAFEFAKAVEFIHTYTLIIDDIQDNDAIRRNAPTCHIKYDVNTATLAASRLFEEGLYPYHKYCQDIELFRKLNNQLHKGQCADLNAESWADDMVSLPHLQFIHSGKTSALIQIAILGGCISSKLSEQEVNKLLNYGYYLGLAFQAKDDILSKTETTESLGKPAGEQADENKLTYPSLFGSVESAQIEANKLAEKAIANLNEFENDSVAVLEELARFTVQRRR

Row | Structure (SMILES) | GC-MS of product after alkaline phosphatase (BAP) treatment (Sc terpene synthase β) | GC-MS of farnesol after alkaline phosphatase (BAP) treatment (FeFPPS) | GC-MS of farnesol after alkaline phosphatase (BAP) treatment (AsFPPS)
1 | CC(C)=CCC/C(C)=C/CC/C(C)=C/COP(=O)(O)OP(=O)(O)O [farnesyl pyrophosphate] | Sc terpene synthase β is monofunctional and performs only the cyclization step of FPP | – | –
2 | CC(C)=CCC/C(C)=C/COP(=O)(O)OP(=O)(O)O [geranyl pyrophosphate] | – | dimethylallyl pyrophosphate (DMAPP) or geranyl pyrophosphate (GPP) as an allylic substrate | dimethylallyl pyrophosphate (DMAPP) or geranyl pyrophosphate (GPP) as an allylic substrate
